# Results taken from US9662327B2 (AGIOS PHARMACEUTICALS, INC, priority 2011, dated 2017).
# Target: IDH1 R132H (Homo sapiens (Human), UniProt O75874, R132H)
# Experiment: Assays for IDH1 R132H Inhibitors (NADPH/aKG, resazurin detection)
# Format: biochemical
# Settings: not given
# Experimental: Assays were conducted in a volume of […] assay buffer (150 mM NaCl, 10 mM MgCl2, 20 mM Tris pH 7.5, 0.03% bovine serum albumin) as follows in a standard 384-well plate: To 25 ul of substrate mix (8 uM NADPH, 2 mM aKG), 1 μl of test compound was added in DMSO. […] The reaction was incubated for 50 minutes at room temperature, then 25 μl of detection mix (30 μM resazurin, […]) was added and the mixture further incubated for 5 minutes at room temperature.
# Chain of IDH1 R132H (O75874 whole entry R132H): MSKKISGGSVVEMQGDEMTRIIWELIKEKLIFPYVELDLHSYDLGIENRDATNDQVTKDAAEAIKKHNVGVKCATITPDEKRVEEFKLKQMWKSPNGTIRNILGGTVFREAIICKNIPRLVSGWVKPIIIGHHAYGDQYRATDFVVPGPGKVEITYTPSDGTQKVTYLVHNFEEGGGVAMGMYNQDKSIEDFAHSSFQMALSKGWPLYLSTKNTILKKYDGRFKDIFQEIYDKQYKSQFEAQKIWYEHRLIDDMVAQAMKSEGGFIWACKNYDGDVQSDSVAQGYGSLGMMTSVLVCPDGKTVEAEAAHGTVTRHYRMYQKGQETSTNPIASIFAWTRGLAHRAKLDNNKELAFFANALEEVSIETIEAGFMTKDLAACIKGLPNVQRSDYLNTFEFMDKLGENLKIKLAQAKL
row,IC50 [nM],Compound
1,1000 to 10000,"CC1(C)Cc2c(C#N)c(N3CCN(C(=O)c4ccco4)CC3)nc(C3CC3)c2CO1 [Compound 142, 8-cyclopropyl-6-(4-(furan-2-carbonyl)piperazin-1-yl)-3,3-dimethyl-3,4-dihydro-1H-pyrano[3,4-c]pyridine-5-carbonitrile]"

# Same assay, conditions: IDH1 R132H enzyme, Table 2; read-out: IDHR132H Activity
row,Compound,IC50 [nM]
1,CC1CN(c2nc(C3CC3)c3c(c2C#N)CC(C)(C)OC3)CCN1C(=O)c1ccoc1 (centres unmarked) [Compound 136],1000 to 10000
2,"CC(C)c1nc(N2CCN(C(=O)c3ccoc3)[C@H](C)C2)c(C#N)c2c1COCC2 [Compound 140, (R)-6-(4-(furan-3-carbonyl)-3-methylpiperazin-1-yl)-8-isopropyl-3,4-dihydro-1H-pyrano[3,4-c]pyridine-5-carbonitrile]",1000 to 10000
3,"N#Cc1c(N2CCN(C(=O)C3CC3)CC2)nc(C2CCCCC2)c2c1CCOC2 [Compound 141, 8-cyclohexyl-6-(4-(cyclopropanecarbonyl)piperazin-1-yl)-3,4-dihydro-1H-pyrano[3,4-c]pyridine-5-carbonitrile]",1000 to 10000
4,"CC1(C)Cc2c(C#N)c(N3CCN(C(=O)c4ccoc4)C(c4ccccc4)C3)nc(C3CCCCC3)c2CO1 (centres unmarked) [Compound 143, 8-cyclohexyl-6-(4-(furan-3-carbonyl)-3-phenylpiperazin-1-yl)-3,3-dimethyl-3,4-dihydro-1H-pyrano[3,4-c]pyridine-5-carbonitrile]",1000 to 10000
5,"CC(C)c1nc(N2CCN(C(=O)Cc3ccccc3)CC2)c(C#N)c2c1COC(C)(C)C2 [Compound 144, 8-isopropyl-3,3-dimethyl-6-(4-(2-phenylacetyl)piperazin-1-yl)-3,4-dihydro-1H-pyrano[3,4-c]pyridine-5-carbonitrile]",1000 to 10000
6,"C[C@@H]1CN(c2nc(C3CCCC3)c3c(c2C#N)CC(C)(C)OC3)C[C@H](C)N1C(=O)c1ccoc1 [Compound 146, 8-cyclopentyl-6-((3S,5R)-4-(furan-3-carbonyl)-3,5-dimethylpiperazin-1-yl)-3,3-dimethyl-3,4-dihydro-1H-pyrano[3,4-c]pyridine-5-carbonitrile]",1000 to 10000
7,"C[C@@H]1CN(c2nc(C3CCCCC3)c3c(c2C#N)CC(C)(C)OC3)CCN1C(=O)c1ccoc1 [Compound 151, (R)-8-cyclohexyl-6-(4-(furan-3-carbonyl)-3-methylpiperazin-1-yl)-3,3-dimethyl-3,4-dihydro-1H-pyrano[3,4-c]pyridine-5-carbonitrile]",1000 to 10000
8,"C[C@@H]1CN(c2nc(C3CCCCC3)c3c(c2C#N)CC(C)(C)OC3)CCN1C(=O)Cc1ccccc1 [Compound 152, (R)-8-cyclohexyl-3,3-dimethyl-6-(3-methyl-4-(2-phenylacetyl)piperazin-1-yl)-3,4-dihydro-1H-pyrano[3,4-c]pyridine-5-carbonitrile]",1000 to 10000
9,"C[C@@H]1CN(c2nc(C3CCCCC3)c3c(c2C#N)CC(C)(C)OC3)CCN1C(=O)Cc1cccs1 [Compound 153, (R)-8-cyclohexyl-3,3-dimethyl-6-(3-methyl-4-(2-(thiophen-2-yl)acetyl)piperazin-1-yl)-3,4-dihydro-1H-pyrano[3,4-c]pyridine-5-carbonitrile]",1000 to 10000
10,"CC(C)c1nc(N2CCN(C(=O)c3ccoc3)C(c3ccccc3)C2)c(C#N)c2c1COC(C)(C)C2 (centres unmarked) [Compound 155, 6-(4-(furan-3-carbonyl)-3-phenylpiperazin-1-yl)-8-isopropyl-3,3-dimethyl-3,4-dihydro-1H-pyrano[3,4-c]pyridine-5-carbonitrile]",1000 to 10000
11,CC1(C)Cc2c(C#N)c(N3CCN(C(=O)c4ccoc4)C(c4ccccc4)C3)nc(C3CC3)c2CO1 (centres unmarked) [Compound 156],1000 to 10000
12,"CC(C)c1nc(N2CCN(C(=O)Cc3cc(F)cc(F)c3)[C@H](C)C2)c(C#N)c2c1COC(C)(C)C2 [Compound 159, (R)-6-(4-(2-(3,5-difluorophenyl)acetyl)-3-methylpiperazin-1-yl)-8-isopropyl-3,3-dimethyl-3,4-dihydro-1H-pyrano[3,4-c]pyridine-5-carbonitrile]",1000 to 10000
13,"C[C@@H]1CN(c2nc(C3CCCCC3)c3c(c2C#N)CCOC3)CCN1C(=O)c1ccoc1 [Compound 160, (R)-8-cyclohexyl-6-(4-(furan-3-carbonyl)-3-methylpiperazin-1-yl)-3,4-dihydro-1H-pyrano[3,4-c]pyridine-5-carbonitrile]",1000 to 10000
14,"C[C@@H]1CN(c2nc(C3CCCCC3)c3c(c2C#N)CCOC3)CCN1C(=O)c1ccco1 [Compound 162, (R)-8-cyclohexyl-6-(4-(furan-2-carbonyl)-3-methylpiperazin-1-yl)-3,4-dihydro-1H-pyrano[3,4-c]pyridine-5-carbonitrile]",1000 to 10000
15,C[C@@H]1CN(c2nc(C3CC3)c3c(c2C#N)CC(C)(C)OC3)CCN1C(=O)c1ccoc1 [Compound 164],500 to 1000
16,"CC(C)c1nc(N2CCN(C(=O)c3ccoc3)[C@H](C(C)C)C2)c(C#N)c2c1COC(C)(C)C2 [Compound 165, (R)-6-(4-(furan-3-carbonyl)-3-isopropylpiperazin-1-yl)-8-isopropyl-3,3-dimethyl-3,4-dihydro-1H-pyrano[3,4-c]pyridine-5-carbonitrile]",< 500

# Results, then the compound that gave them:
row,IC50 [nM],Compound
1,1000 to 10000,"CC1CN(c2nc(C3CC3)c3c(c2C#N)CC(C)(C)OC3)CCN1C(=O)c1ccco1 (centres unmarked) [Compound 135, 8-cyclopropyl-6-(4-(furan-2-carbonyl)-3-methylpiperazin-1-yl)-3,3-dimethyl-3,4-dihydro-1H-pyrano[3,4-c]pyridine-5-carbonitrile]"
2,1000 to 10000,"CC(C)c1nc(N2CCN(C(=O)c3ccco3)C(C)C2)c(C#N)c2c1COC(C)(C)C2 (centres unmarked) [Compound 137, 6-(4-(furan-2-carbonyl)-3-methylpiperazin-1-yl)-8-isopropyl-3,3-dimethyl-3,4-dihydro-1H-pyrano[3,4-c]pyridine-5-carbonitrile]"
3,1000 to 10000,"CC(C)c1nc(N2CCN(C(=O)c3ccoc3)C(C)C2)c(C#N)c2c1COC(C)(C)C2 (centres unmarked) [Compound 138, 6-(4-(furan-3-carbonyl)-3-methylpiperazin-1-yl)-8-isopropyl-3,3-dimethyl-3,4-dihydro-1H-pyrano[3,4-c]pyridine-5-carbonitrile]"
4,1000 to 10000,"CC(C)c1nc(N2CCN(C(=O)c3ccco3)[C@H](C)C2)c(C#N)c2c1COCC2 [Compound 139, (R)-6-(4-(furan-2-carbonyl)-3-methylpiperazin-1-yl)-8-isopropyl-3,4-dihydro-1H-pyrano[3,4-c]pyridine-5-carbonitrile]"
5,1000 to 10000,"CC1CN(c2nc(C3CCCC3)c3c(c2C#N)CC(C)(C)OC3)CCN1C(=O)c1ccco1 (centres unmarked) [Compound 147, 8-cyclopentyl-6-(4-(furan-2-carbonyl)-3-methylpiperazin-1-yl)-3,3-dimethyl-3,4-dihydro-1H-pyrano[3,4-c]pyridine-5-carbonitrile]"
6,1000 to 10000,"CC(C)c1nc(N2CCN(C(=O)c3ccco3)[C@H](C)C2)c(C#N)c2c1COC(C)(C)C2 [Compound 148, (R)-6-(4-(furan-2-carbonyl)-3-methylpiperazin-1-yl)-8-isopropyl-3,3-dimethyl-3,4-dihydro-1H-pyrano[3,4-c]pyridine-5-carbonitrile]"
7,1000 to 10000,"CC(C)c1nc(N2CCN(C(=O)c3ccoc3)[C@H](C)C2)c(C#N)c2c1COC(C)(C)C2 [Compound 149, (R)-6-(4-(furan-3-carbonyl)-3-methylpiperazin-1-yl)-8-isopropyl-3,3-dimethyl-3,4-dihydro-1H-pyrano[3,4-c]pyridine-5-carbonitrile]"
8,1000 to 10000,"C[C@@H]1CN(c2nc(C3CCCCC3)c3c(c2C#N)CC(C)(C)OC3)CCN1C(=O)c1ccco1 [Compound 150, (R)-8-cyclohexyl-6-(4-(furan-2-carbonyl)-3-methylpiperazin-1-yl)-3,3-dimethyl-3,4-dihydro-1H-pyrano[3,4-c]pyridine-5-carbonitrile]"
9,500 to 1000,"CC(C)c1nc(N2CCN(C(=O)c3ccco3)C(c3ccccc3)C2)c(C#N)c2c1COC(C)(C)C2 (centres unmarked) [Compound 154, 6-(4-(furan-2-carbonyl)-3-phenylpiperazin-1-yl)-8-isopropyl-3,3-dimethyl-3,4-dihydro-1H-pyrano[3,4-c]pyridine-5-carbonitrile]"
10,1000 to 10000,"CC(C)c1nc(N2CCN(C(=O)C(=O)c3ccccc3)[C@H](C)C2)c(C#N)c2c1COC(C)(C)C2 [Compound 157, (R)-8-isopropyl-3,3-dimethyl-6-(3-methyl-4-(2-oxo-2-phenylacetyl)piperazin-1-yl)-3,4-dihydro-1H-pyrano[3,4-c]pyridine-5-carbonitrile]"
11,500 to 1000,"CC(C)c1nc(N2CCN(C(=O)Cc3cccs3)[C@H](C)C2)c(C#N)c2c1COC(C)(C)C2 [Compound 158, (R)-8-isopropyl-3,3-dimethyl-6-(3-methyl-4-(2-(thiophen-2-yl)acetyl)piperazin-1-yl)-3,4-dihydro-1H-pyrano[3,4-c]pyridine-5-carbonitrile]"
12,1000 to 10000,"CC(C)c1nc(N2CCN(C(=O)Cc3cccc(Cl)c3)[C@H](C)C2)c(C#N)c2c1COC(C)(C)C2 [Compound 161, (R)-6-(4-(2-(3-chlorophenyl)acetyl)-3-methylpiperazin-1-yl)-8-isopropyl-3,3-dimethyl-3,4-dihydro-1H-pyrano[3,4-c]pyridine-5-carbonitrile]"
13,500 to 1000,"Cc1occc1C(=O)N1CCN(c2nc(C(C)C)c3c(c2C#N)CC(C)(C)OC3)C[C@H]1C [Compound 163, (R)-8-isopropyl-3,3-dimethyl-6-(3-methyl-4-(2-methylfuran-3-carbonyl)piperazin-1-yl)-3,4-dihydro-1H-pyrano[3,4-c]pyridine-5-carbonitrile]"
14,1000 to 10000,"CC(C)c1nc(N2CCN(C(=O)c3ccc(Cl)cc3Cl)[C@H](C)C2)c(C#N)c2c1COC(C)(C)C2 [Compound 166, (R)-6-(4-(2,4-dichlorobenzoyl)-3-methylpiperazin-1-yl)-8-isopropyl-3,3-dimethyl-3,4-dihydro-1H-pyrano[3,4-c]pyridine-5-carbonitrile]"
15,1000 to 10000,C[C@@H]1CN(c2nc(C3CC3)c3c(c2C#N)CC(C)(C)OC3)CCN1C(=O)c1ccco1 [Compound 167]
